This is an account of results in patent publication US7728032B2, “Phenoxymethylalkyne inhibitors of LTA4H for treating inflammation” (deCODE genetics ehf, priority 2006, dated 2010).

The target in assay [1] is T1, recombinant human LTA4 hydrolase (Homo sapiens, UniProt P09960).
T1 construct: A human LTA4 hydrolase full-length cDNA clone (NM_000895) was purchased from OriGene Technologies; 6xHis (own knowledge: pDEST17 adds an N-terminal His tag); made in house; host or cells: Escherichia coli BL21-AI
T1 sequence (P09960 1-611): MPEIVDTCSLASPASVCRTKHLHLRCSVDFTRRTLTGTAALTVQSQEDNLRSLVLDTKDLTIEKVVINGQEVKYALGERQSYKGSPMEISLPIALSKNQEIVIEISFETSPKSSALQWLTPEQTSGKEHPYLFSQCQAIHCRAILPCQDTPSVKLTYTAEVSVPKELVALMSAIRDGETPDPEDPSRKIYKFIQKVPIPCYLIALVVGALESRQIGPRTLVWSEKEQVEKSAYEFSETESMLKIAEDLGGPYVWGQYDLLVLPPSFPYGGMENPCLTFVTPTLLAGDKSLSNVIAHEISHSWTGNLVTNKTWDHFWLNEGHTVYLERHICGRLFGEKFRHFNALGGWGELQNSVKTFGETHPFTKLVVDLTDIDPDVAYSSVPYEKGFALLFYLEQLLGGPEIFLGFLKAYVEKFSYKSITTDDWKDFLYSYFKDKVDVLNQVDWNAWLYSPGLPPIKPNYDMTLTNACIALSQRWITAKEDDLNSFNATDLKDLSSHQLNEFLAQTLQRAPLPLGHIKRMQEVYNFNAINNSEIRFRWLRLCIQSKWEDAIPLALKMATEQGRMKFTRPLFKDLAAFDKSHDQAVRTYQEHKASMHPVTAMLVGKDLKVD
Briefly: In vitro assay testing inhibitory activity against purified recombinant human LTA4 hydrolase. It is filed as biochemical. The note with it: 200 nM recombinant enzyme, 2 μM LTA4, 120 sec, LTB4 formed measured by LC-MS/MS. The text has this:
(1) In vitro assay testing inhibitory activity against purified recombinant human LTA4 hydroase:
A human LTA4 hydrolase full-length cDNA clone (NM_000895) was purchased from OriGene Technologies (Rockville, Md.). The gene was amplified by polymerase chain reaction and transferred via pDONR201 into the bacterial expression vector pDEST17 by recombination (both plasmids from Invitrogen, Carlsbad, Calif.). The resulting construct was transformed into Escherichia coli BL21-AI (Invitrogen), and expression was induced by chemical induction with arabinose. The recombinant enzyme was purified by chromatography on a FPLC system (Amersham Biosciences, Uppsala, Sweden) using immobilized metal affinity chromatography (Ni-NTA Superflow, Qiagen, Hilden, Germany) and anion exchange chromatography (MonoQ HR 10/10, Amersham Biosciences).
The compounds of the invention were incubated in a series of dilutions with 200 nM of recombinant enzyme in assay buffer (100 mM Tris-HCl, 100 mM NaCl, 5 mg/ml fatty-acid free BSA, 10% DMSO, pH 8.0) for 10 min at room temperature to allow binding between LTA4 hydrolase and the inhibitors. LTA4 was prepared by alkaline hydrolysis of LTA4 methyl ester (Biomol, Plymouth Meeting, Pa., or Cayman Chemicals, Ann Arbor, Mich.). A solution of 10 μg of the ester was dried under a nitrogen stream and redissolved in 60 μl of a solution of 80% aceton and 20% 0.25 M NaOH. After incubation for 40 min at room temperature the resulting approximately 500 μM tock of LTA4 was kept at −80° C. for no more than a few days prior to use.
Immediately before the assay, LTA4 was diluted to a concentration of 10 μM in assay buffer (without DMSO) and added to the reaction mixture to a final concentration of 2 μM to initiate the enzyme reaction. After incubation for 120 sec at room temperature, the reaction was stopped by adding 2 volumes of chilled quenching buffer, containing acetonitril with 1% acetic acid and 225 nM LTB4-d4 (Biomol). The samples were then kept at 4° C. over night to complete protein precipitation and centrifuged for 15 min at 1800 g. LTB4 formed was measured by LC-MS/MS using LTB4-d4 as an internal standard and an external LTB4 standard (Biomol) as reference. Briefly, the analyte was separated from LTB4 isomers formed by spontaneous hydrolysis of LTA4 using isocratic elution (modified protocol from Mueller et al. (1996), J. Biol. Chem. 271, 24345-24348) on a HPLC system (Waters, Milford, Mass.) and analyzed on a tandem quadrupole mass spectrometer (Waters). MRM transitions followed on 2 channels were 335.2>195.3 (LTB4) and 339.2>197.3 (LTB4-d4). Based on the amounts of LTB4 found at each inhibitor concentration, a dose-response curve was fitted to the data and an IC50 value was calculated.

The test system of another assay is spontaneous colitis. The note with it: eight weeks of treatment, primate model; cited from earlier work.
Assay [2] has as its system ionophore-induced LTB4 production. The note with it: oral administration, rat peritoneum in vivo; cited from earlier work.
For assay [3] the test system is unchanged. The note with it: oral administration, mouse blood ex vivo; cited from earlier work.

Counter-ions that a name gives are not always drawn. Like-named read-outs stand apart in the source and are kept apart here. A value given as a limit tells only on which side of the number the result lay.

Consider `C#CCOc1ccc(OC[C@H]2CCCN2)cc1` [Example 1, (R)-2-(4-Prop-2-ynyloxy-phenoxymethyl)-pyrrolidine hydrochloride], for which the IC50 (in general, the concentration that inhibits the measured activity by half) in assay [1] fell in the range of 5 to 20 µM.

`C(#Cc1ccccc1)COc1ccc(OC[C@H]2CCCN2)cc1` [Example 2, 2-[4-(3-Phenyl-prop-2-ynyloxy)-phenoxymethyl]-pyrrolidine]: the IC50 in assay [1] is below 5 µM.

With `Brc1ccc(C#CCOc2ccc(OC[C@H]3CCCN3)cc2)cc1` [Example 4, 2-{4-[3-(4-Bromo-phenyl)-prop-2-ynyloxy]-phenoxymethyl}-pyrrolidine hydrochloride], the half-inhibitory concentration (IC50) in assay [1] is 5 to 20 µM.

Take `CC#CCOc1ccc(OCCN2CCCCC2)cc1` [Example 6, 1-[2-(4-But-2-ynyloxy-phenoxy)-ethyl]-piperidine]: the half-maximal inhibitory concentration (IC50) in assay [1] lay in the range of 5 to 20 µM.

As for `CN(CCCOc1ccc(Cc2ccccc2)cc1)CCC(=O)O.Cl` [SC57461], the colitis symptoms entry with spontaneous colitis was “significantly improved”. The “inhibition of ionophore-induced LTB4 production” value in assay [2] and in assay [3] was “inhibition” each time.

Take “(4-{3-[4-(Pyrrolidin-2-ylmethoxy)-phenoxy]-prop-1-ynyl}-phenyl)-methanol [Example 3]”: the IC50 in assay [1] is below 5 µM.
